The values below are quoted from earlier work in patent publication US20110086399A1, “RECOVERY OF STILBENOIDS” (FLUXOME SCIENCES A/S, priority 2008, published 2011).

Each structure is given as a SMILES string.

For the data set the following is noted: stated for comparison with the concentrations in the cell broth.

Usually aqueous solubility stands for the dissolved amount per volume that the medium holds. Consider `Oc1cc(O)cc(/C=C/c2ccccc2)c1` [pinosylvin], for which the aqueous solubility is below 0.03 mg/mL.
